Source: patent publication US8440652B2, “MST1 kinase inhibitors and methods of their use” (Lexicon Pharmaceuticals, Inc., priority 2011, dated 2013)
Read-outs that look alike come from different tables or passages of the source.

Biological target: T1, MST1 (Homo sapiens, UniProt Q13043)
T1 sequence (Q13043 1-487): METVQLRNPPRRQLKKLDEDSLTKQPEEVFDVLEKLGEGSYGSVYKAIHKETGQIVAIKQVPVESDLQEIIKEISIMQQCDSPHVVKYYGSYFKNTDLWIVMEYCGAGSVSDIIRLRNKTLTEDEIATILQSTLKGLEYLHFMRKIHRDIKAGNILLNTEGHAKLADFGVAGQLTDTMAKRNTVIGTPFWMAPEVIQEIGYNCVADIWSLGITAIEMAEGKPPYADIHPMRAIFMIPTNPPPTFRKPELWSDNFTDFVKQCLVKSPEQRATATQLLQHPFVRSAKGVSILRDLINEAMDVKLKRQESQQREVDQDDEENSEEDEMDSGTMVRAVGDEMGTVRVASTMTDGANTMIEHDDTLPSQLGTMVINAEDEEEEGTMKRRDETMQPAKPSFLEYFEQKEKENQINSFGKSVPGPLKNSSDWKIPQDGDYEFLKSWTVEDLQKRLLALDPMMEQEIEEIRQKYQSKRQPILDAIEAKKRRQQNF
Assay: In vitro measurement of MST1 inhibition (Z′-Lyte kinase assay)
Format: biochemical

[1] = 1 μM ATP, read-out: IC50 (μM) 1 μM ATP
[2] = 50 μM ATP, read-out: IC50 (μM) 50 μM ATP

SMILES	IC50 [1] [µM]	IC50 [2] [µM]
N#CC1(c2ccc(-c3cc(-c4ccc5c(c4)CCNC5=O)c(N)nn3)cc2)CC1 [1-(4-(6-amino-5-(1-oxo-1,2,3,4-tetrahydroisoquinolin-6-yl)pyridazin-3-yl)phenyl)cyclopropanecarbonitrile]	< 0.15	< 0.15
CN(C1CC1)S(=O)(=O)c1ccc(-c2cnc(N)c(C3=CCN(C(=O)CC#N)CC3)c2)cc1 [4-(2-amino-1′-(2-cyanoacetyl)-1′,2′,3′,6′-tetrahydro-[3,4′-bipyridin]-5-yl)-N-cyclopropyl-N-methylbenzenesulfonamide]	< 0.15	< 0.15
CCNS(=O)(=O)c1ccc(-c2cnc(N)c(C(=O)NC3CCCCC3)n2)cc1 [3-amino-N-cyclohexyl-6-(4-(N-ethylsulfamoyl)phenyl)pyrazine-2-carboxamide]	< 0.15	< 0.05
CCNS(=O)(=O)c1ccc(-c2cnc(N)c(-c3ccc4c(O)ncnc4c3)c2)cc1 [4-(6-amino-5-(4-hydroxyquinazolin-7-yl)pyridin-3-yl)-N-ethylbenzenesulfonamide]	< 0.05	< 0.01
N#CC1CC1c1ccc(-c2cnc(N)c(-c3ccc4c(c3)CCNC4=O)n2)cc1 (centres unmarked) [2-(4-(5-amino-6-(1-oxo-1,2,3,4-tetrahydroisoquinolin-6-yl)pyrazin-2-yl)phenyl)cyclopropanecarbonitrile]	< 0.05	< 0.01
N#CC1(c2ccc(-c3cnc(N)c(-c4ccc5c(c4)CCNC5=O)n3)cc2)CCCC1 [1-(4-(5-amino-6-(1-oxo-1,2,3,4-tetrahydroisoquinolin-6-yl)pyrazin-2-yl)phenyl)cyclopentanecarbonitrile]	< 0.01	< 0.01
NC(=O)c1ccc(-c2cc(-c3ccc(-n4ccnc4)cc3)cnc2N)cc1 [4-(5-(4-(1H-imidazol-1-yl)phenyl)-2-aminopyridin-3-yl)benzamide]		< 0.15
NC(=O)c1ccc(-c2cc(-c3ccc(C(=O)c4ccccc4)cc3)cnc2N)cc1 [4-(2-amino-5-(4-benzoylphenyl)pyridin-3-yl)benzamide]		< 0.15
N#CCOc1ccc(-c2cnc(N)c(-c3ccc4c(c3)CCNC4=O)n2)cc1 [2-(4-(5-amino-6-(1-oxo-1,2,3,4-tetrahydroisoquinolin-6-yl)pyrazin-2-yl)phenoxy)acetonitrile]	< 0.15	< 0.05
C=CCN(C)S(=O)(=O)c1ccc(-c2cnc(N)c(-c3ccc4c(c3)CCNC4=O)c2)cc1 [N-allyl-4-(6-amino-5-(1-oxo-1,2,3,4-tetrahydroisoquinolin-6-yl)pyridin-3-yl)-N-methylbenzenesulfonamide]	< 0.01	< 0.01
Nc1ncc(-c2ccc3c(c2)CNS3(=O)=O)cc1-c1ccc2c(c1)CCNC2=O [6-(2-amino-5-(1,1-dioxido-2,3-dihydrobenzo[d]isothiazol-5-yl)pyridin-3-yl)-3,4-dihydroisoquinolin-1(2H)-one]	< 0.05	< 0.01
CC(C)(Oc1ccc(-c2cnc(N)c(-c3ccc4c(c3)CCNC4=O)n2)cc1)C(N)=O [2-(4-(5-amino-6-(1-oxo-1,2,3,4-tetrahydroisoquinolin-6-yl)pyrazin-2-yl)phenoxy)-2-methylpropanamide]	< 0.05	< 0.01
CC(=O)NCc1ccc(-c2cnc(N)c(-c3ccc4c(c3)CCNC4=O)c2)cc1 [N-(4-(6-amino-5-(1-oxo-1,2,3,4-tetrahydroisoquinolin-6-yl)pyridin-3-yl)benzyl)acetamide]	< 0.05	< 0.01
CCNS(=O)(=O)c1ccc(-c2cnc(N)c(-c3ccc4c(c3)CCNC4=O)n2)cc1 [4-(5-amino-6-(1-oxo-1,2,3,4-tetrahydroisoquinolin-6-yl)pyrazin-2-yl)-N-ethylbenzenesulfonamide]	< 0.01	< 0.01
CC(Oc1ccc(-c2cnc(N)c(-c3ccc4c(c3)CCNC4=O)n2)cc1)C1CC1 (centres unmarked) [6-(3-amino-6-(4-(1-cyclopropylethoxy)phenyl)pyrazin-2-yl)-3,4-dihydroisoquinolin-1(2H)-one]	< 0.05	< 0.01
Cc1cc(-c2cnc(N)c(-c3ccc4c(c3)OCCNC4=O)n2)ccc1S(=O)(=O)NC1CC1 [4-(5-amino-6-(5-oxo-2,3,4,5-tetrahydrobenzo[f][1,4]oxazepin-8-yl)pyrazin-2-yl)-N-cyclopropyl-2-methylbenzenesulfonamide]	< 0.05	< 0.01

SMILES	IC50 [1] [µM]	IC50 [2] [µM]
N#CC1(c2ccc(-c3cnc(N)c(-c4ccc5c(c4)C4(CC4)NC5=O)n3)cc2)CCOCC1 [4-(4-(5-amino-6-(3′-oxospiro[cyclopropane-1,1′-isoindolin]-6′-yl)pyrazin-2-yl)phenyl)tetrahydro-2H-pyran-4-carbonitrile]	< 0.05	< 0.01
CN(C1CC1)S(=O)(=O)c1ccc(-c2cnc(N)c(-c3ccc4c(c3)OC[C@@H](COCc3ccccc3)NC4=O)c2)cc1 [(R)-4-(6-amino-5-(3-((benzyloxy)methyl)-5-oxo-2,3,4,5-tetrahydrobenzo[f][1,4]oxazepin-8-yl)pyridin-3-yl)-N-cyclopropyl-N-methylbenzenesulfonamide]	< 0.15	< 0.01
CCCN(C)S(=O)(=O)c1ccc(-c2cnc(N)c(-c3ccc4c(c3)CCNC4=O)n2)cc1 [4-(5-amino-6-(1-oxo-1,2,3,4-tetrahydroisoquinolin-6-yl)pyrazin-2-yl)-N-methyl-N-propylbenzenesulfonamide]	< 0.01	< 0.01
CCS(=O)(=O)Nc1ccc(-c2cnc(N)c(-c3ccc4c(c3)CCNC4=O)c2)cc1 [N-(4-(6-amino-5-(1-oxo-1,2,3,4-tetrahydroisoquinolin-6-yl)pyridin-3-yl)phenyl)ethanesulfonamide]	< 0.05	< 0.01
NCC1CCC(NC(=O)c2nc(-c3ccc(S(=O)(=O)NC4CC4)cc3)cnc2N)CC1 (centres unmarked) [3-amino-N-(4-(aminomethyl)cyclohexyl)-6-(4-(N-cyclopropylsulfamoyl)phenyl)pyrazine-2-carboxamide]	< 0.05	< 0.01
CC(C)(C#N)c1ccc(-c2cnc(N)c(-c3ccc4c(c3)CCNC4=O)n2)cc1 [2-(4-(5-amino-6-(1-oxo-1,2,3,4-tetrahydroisoquinolin-6-yl)pyrazin-2-yl)phenyl)-2-methylpropanenitrile]	< 0.05	< 0.01
CCNS(=O)(=O)c1ccc(-c2cnc(N)c(-c3ccc(C(N)=O)cn3)c2)cc1 [2′-amino-5′-(4-(N-ethylsulfamoyl)phenyl)-[2,3′-bipyridine]-5-carboxamide]	< 0.05	< 0.01
Nc1ncc(-c2ccc(S(=O)(=O)NC3CC3)cc2)cc1-c1ccc2c(c1)OCCNC2=O [4-(6-amino-5-(5-oxo-2,3,4,5-tetrahydrobenzo[f][1,4]oxazepin-8-yl)pyridin-3-yl)-N-cyclopropylbenzenesulfonamide]	< 0.01	< 0.01
Cc1cc(-c2cnc(N)c(-c3ccc4c(c3)CCNC4=O)c2)ccc1S(=O)(=O)N(C)C1CC1 [4-(6-amino-5-(1-oxo-1,2,3,4-tetrahydroisoquinolin-6-yl)pyridin-3-yl)-N-cyclopropyl-N,2-dimethylbenzenesulfonamide]	< 0.01	< 0.01
[2H]C1([2H])CNC(=O)c2ccc(-c3nc(-c4ccc(S(=O)(=O)NC5CC5)cc4)cnc3N)cc21 [4-(5-amino-6-(4,4-dideutero-1-oxo-1,2,3,4-tetrahydroisoquinolin-6-yl)pyrazin-2-yl)-N-cyclopropylbenzenesulfonamide]	< 0.01	< 0.01
Nc1ncc(-c2ccc(S(=O)(=O)NC3CC3)cn2)cc1-c1ccc2c(c1)CCNC2=O [6′-amino-N-cyclopropyl-5′-(1-oxo-1,2,3,4-tetrahydroisoquinolin-6-yl)-[2,3′-bipyridine]-5-sulfonamide]	< 0.01	< 0.01
Nc1ncc(-c2ccc(S(=O)(=O)NC3CC3)cc2)cc1-c1ccc2c(c1)CCNC2=O [4-(6-amino-5-(1-oxo-1,2,3,4-tetrahydroisoquinolin-6-yl)pyridin-3-yl)-N-cyclopropylbenzenesulfonamide]	< 0.01	< 0.01
Nc1ncc(-c2ccc(S(=O)(=O)NC3CC3)cc2)nc1-c1ccc2c(c1)CCNC2=O [4-(5-amino-6-(1-oxo-1,2,3,4-tetrahydroisoquinolin-6-yl)pyrazin-2-yl)-N-cyclopropylbenzenesulfonamide]	< 0.01	< 0.01
CC1(C)C(=O)NC(=O)c2ccc(-c3nc(-c4ccc(S(=O)(=O)NC5CC5)cc4)cnc3N)cc21 [4-(5-amino-6-(4,4-dimethyl-1,3-dioxo-1,2,3,4-tetrahydroisoquinolin-6-yl)pyrazin-2-yl)-N-cyclopropylbenzenesulfonamide]	< 0.15	< 0.15
CCS(=O)(=O)c1ccc(-c2cnc(N)c(-c3ccc4c(c3)CCNC4=O)c2)cc1 [6-(2-amino-5-(4-(ethylsulfonyl)phenyl)pyridin-3-yl)-3,4-dihydroisoquinolin-1(2H)-one]	< 0.05	< 0.05
CN(CC(F)F)S(=O)(=O)c1ccc(-c2cnc(N)c(-c3ccc4c(c3)CCNC4=O)n2)cc1 [4-(5-amino-6-(1-oxo-1,2,3,4-tetrahydroisoquinolin-6-yl)pyrazin-2-yl)-N-(2,2-difluoroethyl)-N-methylbenzenesulfonamide]	< 0.05	< 0.01
